Literature values, collected in patent publication US9056899B2 (priority 2008, dated 2015).
In brackets after ≈: the same amount, converted by molar mass. Read-outs that look alike come from different tables or passages of the source.

What was measured:
Settings in all cases: cited from earlier work
[1] = tested on: BW25113 and gene knockouts
[2] = tested on: BW25113 gene knockouts
[3] = tested on: BW25113 and gene knockouts; remark: listed apart in the source
[4] = tested on: BW25113 and gene knockouts from KEIO collection
[5] = tested on: BW25113 and gene knockouts from KEIO collection; remark: listed apart in the source

Cc1cc(NS(=O)(=O)c2ccc(N)cc2)no1 [Sulfamethaxazone]
MIC Plating ([1]; BW25113 starting strain): 1000 µg/mL (≈ 3950 µM) | MIC Plating ([1]; JW5115 knockout): 400 µg/mL (≈ 1580 µM) | MIC Plating ([1]; JW5474 knockout): 500 µg/mL (≈ 1970 µM) | MIC Plating ([1]; dapF knockout): 300 µg/mL (≈ 1180 µM) | MIC Plating ([1]; dcd knockout): >550 µg/mL | MIC Plating ([1]; degP knockout): 500 µg/mL (≈ 1970 µM) | MIC Plating ([1]; deoT knockout): 550 µg/mL (≈ 2170 µM) | MIC Plating ([1]; dksA knockout): 550 µg/mL (≈ 2170 µM) | MIC Plating ([1]; dnaK knockout): 300 µg/mL (≈ 1180 µM) | MIC Plating ([1]; envC knockout): 400 µg/mL (≈ 1580 µM) | MIC Plating ([1]; fis knockout): 600 µg/mL (≈ 2370 µM) | MIC Plating ([1]; gpmM knockout): 400 µg/mL (≈ 1580 µM) | MIC Plating ([1]; hns knockout): 550 µg/mL (≈ 2170 µM) | MIC Plating ([1]; lpdA knockout): 400 µg/mL (≈ 1580 µM) | MIC Plating ([1]; lptB knockout): 500 µg/mL (≈ 1970 µM) | MIC Plating ([1]; nudB knockout): 350 µg/mL (≈ 1380 µM) | MIC Plating ([1]; pgmB knockout): 500 µg/mL (≈ 1970 µM) | MIC Plating ([1]; pstA knockout): 550 µg/mL (≈ 2170 µM) | MIC Plating ([1]; pstS knockout): 550 µg/mL (≈ 2170 µM) | MIC Plating ([1]; qmcA knockout): 550 µg/mL (≈ 2170 µM) | MIC Plating ([1]; recA knockout): 400 µg/mL (≈ 1580 µM) | MIC Plating ([1]; recB knockout): 350 µg/mL (≈ 1380 µM) | MIC Plating ([1]; recC knockout): 350 µg/mL (≈ 1380 µM) | MIC Plating ([1]; recG knockout): 500 µg/mL (≈ 1970 µM) | MIC Plating ([1]; resA knockout): >550 µg/mL | MIC Plating ([1]; rfaE knockout): 550 µg/mL (≈ 2170 µM) | MIC Plating ([1]; rimK knockout): 350 µg/mL (≈ 1380 µM) | MIC Plating ([1]; rplA knockout): 500 µg/mL (≈ 1970 µM) | MIC Plating ([1]; rpmF knockout): 550 µg/mL (≈ 2170 µM) | MIC Plating ([1]; rpsU knockout): 500 µg/mL (≈ 1970 µM) | MIC Plating ([1]; tolC knockout): 400 µg/mL (≈ 1580 µM) | MIC Plating ([1]; xapR knockout): >550 µg/mL | MIC Plating ([1]; ybeY knockout): 500 µg/mL (≈ 1970 µM) | MIC Plating ([1]; ybgF knockout): >550 µg/mL | MIC Plating ([1]; yciM knockout): >550 µg/mL | MIC Plating ([1]; yciS knockout): 550 µg/mL (≈ 2170 µM) | MIC Plating ([1]; ydjI knockout): >550 µg/mL | MIC Plating ([1]; yfgL knockout): 400 µg/mL (≈ 1580 µM) | MIC Plating ([1]; ygcO knockout): 550 µg/mL (≈ 2170 µM) | MIC Plating ([1]; yiiU knockout): 550 µg/mL (≈ 2170 µM) | MIC Plating ([1]; yjjY knockout): >550 µg/mL | MIC Plating ([1]; ylcG knockout): 500 µg/mL (≈ 1970 µM) | MIC Plating ([1]; ymfI knockout): 500 µg/mL (≈ 1970 µM) | MIC Plating ([1]; yneE knockout): 550 µg/mL (≈ 2170 µM)

CN[C@H](CC(C)C)C(=O)N[C@H]1C(=O)N[C@@H](CC(N)=O)C(=O)N[C@H]2C(=O)N[C@H]3C(=O)N[C@H](C(=O)N[C@H](C(=O)O)c4cc(O)cc(O)c4-c4cc3ccc4O)[C@H](O)c3ccc(c(Cl)c3)Oc3cc2cc(c3O[C@@H]2O[C@H](CO)[C@@H](O)[C@H](O)[C@H]2O[C@H]2C[C@](C)(N)[C@H](O)[C@H](C)O2)Oc2ccc(cc2Cl)[C@H]1O [Vancomycin]
MIC E test ([2]; lptB knockout): 2.0 µg/mL (≈ 1.38 µM) | MIC E test ([2]; pal knockout): 96 µg/mL (≈ 66.2 µM) | MIC E test ([2]; smpA knockout): 70 µg/mL (≈ 48.3 µM) | MIC E test ([2]; surA knockout): 4 µg/mL (≈ 2.76 µM) | MIC Plating ([3]; BW25113 starting strain): 500 µg/mL (≈ 345 µM) | MIC Plating ([3]; dksA knockout): 125 µg/mL (≈ 86.3 µM) | MIC Plating ([3]; elaD knockout): 150 µg/mL (≈ 104 µM) | MIC Plating ([3]; envC knockout): 150 µg/mL (≈ 104 µM) | MIC Plating ([3]; envZ knockout): 150 µg/mL (≈ 104 µM) | MIC Plating ([3]; fepC knockout): 150 µg/mL (≈ 104 µM) | MIC Plating ([3]; hns knockout): 150 µg/mL (≈ 104 µM) | MIC Plating ([3]; hscB knockout): 150 µg/mL (≈ 104 µM) | MIC Plating ([3]; lptB knockout): 150 µg/mL (≈ 104 µM) | MIC Plating ([3]; msbB knockout): 150 µg/mL (≈ 104 µM) | MIC Plating ([3]; oxyR knockout): 150 µg/mL (≈ 104 µM) | MIC Plating ([3]; pal knockout): 100 µg/mL (≈ 69 µM) | MIC Plating ([3]; pgmB knockout): 100 µg/mL (≈ 69 µM) | MIC Plating ([3]; proW knockout): 150 µg/mL (≈ 104 µM) | MIC Plating ([3]; rimK knockout): 150 µg/mL (≈ 104 µM) | MIC Plating ([3]; rpmJ knockout): 150 µg/mL (≈ 104 µM) | MIC Plating ([3]; rrmJ knockout): 150 µg/mL (≈ 104 µM) | MIC Plating ([3]; skp knockout): 75 µg/mL (≈ 51.8 µM) | MIC Plating ([3]; smpA knockout): 100 µg/mL (≈ 69 µM) | MIC Plating ([3]; surA knockout): 8 µg/mL (≈ 5.52 µM) | MIC Plating ([3]; tonB knockout): 125 µg/mL (≈ 86.3 µM) | MIC Plating ([3]; tusC knockout): 150 µg/mL (≈ 104 µM) | MIC Plating ([3]; tusD knockout): 150 µg/mL (≈ 104 µM) | MIC Plating ([3]; xapR knockout): 100 µg/mL (≈ 69 µM) | MIC Plating ([3]; ybgF knockout): 100 µg/mL (≈ 69 µM) | MIC Plating ([3]; ycbR knockout): 150 µg/mL (≈ 104 µM) | MIC Plating ([3]; yciM knockout): 100 µg/mL (≈ 69 µM) | MIC Plating ([3]; ydfP knockout): 150 µg/mL (≈ 104 µM) | MIC Plating ([3]; ydjI knockout): 100 µg/mL (≈ 69 µM) | MIC Plating ([3]; yfgC knockout): 150 µg/mL (≈ 104 µM) | MIC Plating ([3]; yfgL knockout): 150 µg/mL (≈ 104 µM) | MIC Plating ([3]; yhdP knockout): 125 µg/mL (≈ 86.3 µM)

O=C(O)c1cn(C2CC2)c2cc(N3CCNCC3)c(F)cc2c1=O [Ciprofloxacin]
MIC E-Test ([4]; BW25113 starting strain): 0.016 µg/mL (≈ 0.0483 µM) | MIC E-Test ([4]; fis knockout): 0.006 µg/mL (≈ 0.0181 µM) | MIC E-Test ([4]; recA knockout): 0.002 µg/mL (≈ 0.00604 µM) | MIC E-Test ([4]; recC knockout): 0.008 µg/mL (≈ 0.0241 µM) | MIC E-Test ([4]; recG knockout): 0.006 µg/mL (≈ 0.0181 µM) | MIC E-Test ([4]; ruvC knockout): 0.008 µg/mL (≈ 0.0241 µM) | MIC E-Test ([4]; tolC knockout): 0.004 µg/mL (≈ 0.0121 µM) | MIC E-Test ([4]; uvrD knockout): 0.005 µg/mL (≈ 0.0151 µM) | MIC E-Test ([4]; xseA knockout): 0.006 µg/mL (≈ 0.0181 µM) | MIC Plating ([5]; BW25113 starting strain): 0.02 µg/mL (≈ 0.0604 µM) | MIC Plating ([5]; acrA knockout): 0.0075 µg/mL (≈ 0.0226 µM) | MIC Plating ([5]; acrB knockout): 0.008 µg/mL (≈ 0.0241 µM) | MIC Plating ([5]; deoT knockout): 0.0075 µg/mL (≈ 0.0226 µM) | MIC Plating ([5]; dksA knockout): 0.01 µg/mL (≈ 0.0302 µM) | MIC Plating ([5]; fis knockout): >0.00875 µg/mL | MIC Plating ([5]; hfq knockout): 0.0075 µg/mL (≈ 0.0226 µM) | MIC Plating ([5]; hrpA knockout): 0.00875 µg/mL (≈ 0.0264 µM) | MIC Plating ([5]; ihfA knockout): 0.0075 µg/mL (≈ 0.0226 µM) | MIC Plating ([5]; pgmB knockout): 0.01 µg/mL (≈ 0.0302 µM) | MIC Plating ([5]; qmcA knockout): >0.00875 µg/mL | MIC Plating ([5]; recA knockout): >0.00875 µg/mL | MIC Plating ([5]; recB knockout): 0.0075 µg/mL (≈ 0.0226 µM) | MIC Plating ([5]; recC knockout): >0.00875 µg/mL | MIC Plating ([5]; recG knockout): 0.006 µg/mL (≈ 0.0181 µM) | MIC Plating ([5]; recN knockout): 0.01 µg/mL (≈ 0.0302 µM) | MIC Plating ([5]; rimK knockout): >0.00875 µg/mL | MIC Plating ([5]; rseA knockout): >0.00875 µg/mL | MIC Plating ([5]; ruvA knockout): 0.01 µg/mL (≈ 0.0302 µM) | MIC Plating ([5]; ruvC knockout): >0.00875 µg/mL | MIC Plating ([5]; tolC knockout): 0.005 µg/mL (≈ 0.0151 µM) | MIC Plating ([5]; uvrD knockout): 0.006 µg/mL (≈ 0.0181 µM) | MIC Plating ([5]; xseA knockout): 0.006 µg/mL (≈ 0.0181 µM) | MIC Plating ([5]; xseB knockout): 0.008 µg/mL (≈ 0.0241 µM) | MIC Plating ([5]; ybgC knockout): 0.0075 µg/mL (≈ 0.0226 µM) | MIC Plating ([5]; ybgF knockout): 0.0075 µg/mL (≈ 0.0226 µM) | MIC Plating ([5]; ychJ knockout): 0.0075 µg/mL (≈ 0.0226 µM) | MIC Plating ([5]; yciM knockout): 0.0075 µg/mL (≈ 0.0226 µM) | MIC Plating ([5]; ygcO knockout): 0.0075 µg/mL (≈ 0.0226 µM) | MIC Plating ([5]; yjjY knockout): 0.00875 µg/mL (≈ 0.0264 µM)
